Test results taken from US20230090742A1, “AMINOPYRIMIDINYLAMINOBENZONITRILE DERIVATIVES AS NEK2 INHIBITORS” (Sumitomo Pharma Oncology, Inc., priority 2020, published 2023).
pIC50: −log10 of the molar value.

Key:
[1] = biological target: T1, NEK2 kinase (Accession No. NP-002488) (Homo sapiens, UniProt P51955); assay: HotSpot Kinase Assay, NEK2; format: biochemical; details: HotSpot Kinase Assay; read-out: NEK2 IC50
T1 construct: purchased ThermoFisher Scientific (Invitrogen)
T1 sequence (P51955 1-445): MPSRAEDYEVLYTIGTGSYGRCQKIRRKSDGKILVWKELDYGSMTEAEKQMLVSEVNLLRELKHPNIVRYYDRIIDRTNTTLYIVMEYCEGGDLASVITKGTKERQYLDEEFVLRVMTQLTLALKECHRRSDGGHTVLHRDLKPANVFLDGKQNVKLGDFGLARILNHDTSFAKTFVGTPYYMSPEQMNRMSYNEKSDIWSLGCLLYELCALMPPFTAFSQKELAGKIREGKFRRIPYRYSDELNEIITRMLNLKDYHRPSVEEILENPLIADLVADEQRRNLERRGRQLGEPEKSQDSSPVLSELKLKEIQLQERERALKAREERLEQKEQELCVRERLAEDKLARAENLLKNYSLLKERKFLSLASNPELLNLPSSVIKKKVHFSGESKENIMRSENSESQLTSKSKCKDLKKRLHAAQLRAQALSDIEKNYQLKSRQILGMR
Experimental: In this example, the compounds described herein were tested for their inhibitory activity against NEK2 and/or Aurora A using the HotSpot™ Kinase Assay (Reaction Biology Corp.). The assay was performed according to the manufacturer's protocol, as detailed below. The NEK2 kinase (Accession No. NP-002488) and Aurora A kinase (Accession No. NP-940839) for use in these assays was sourced from ThermoFisher Scientific (Invitrogen).
The base Reaction Buffer used in this experiment contained the following: 20 mM Hepes (pH 7.5), 10 mM MgCl2, 1 mM EGTA, 0.02% Brij™-35, 0.02 mg/ml BSA, 0.1 mM Na3VO4, 2 mM DTT, and 1% DMSO. The required cofactors were added individually to each kinase reaction.
Testing compounds were dissolved in 100% DMSO to a specific concentration. The serial dilution was conducted by Integra Viaflo Assist in DMSO.
The substrate was prepared in freshly prepared Reaction Buffer. The required cofactors were delivered to the substrate solution described above. NEK2 kinase or Aurora A kinase was delivered to the substrate solution and gently mixed. Next, the compounds in 100% DMSO were transferred to the kinase reaction mixture by Acoustic technology (Echo550; nanoliter range) and incubated for 20 min at room temperature. ^33P-ATP (Specific activity 10 μCi/μl) was delivered into the reaction mixture to initiate the reaction. The reaction was incubated for 2 hours at room temperature. Radioactivity was then detected by the filter-binding method. Kinase activity data were expressed as the percent remaining kinase activity in test samples compared to vehicle (dimethyl sulfoxide) reactions. IC50 values and curve fits were obtained using Prism (GraphPad Software).

[2] = tested on: phosphorylation of PP1α and HEC1; assay: Western blot analysis for phospho-PP1α and phospho-Hec1 in cell cycle synchronized MDA-MB-231 cells; format: cell-based; details: double thymidine block and nocodazole, 10, 50, 100, and 500 nM
Experimental: Reagents. MDA-MB-231 (Breast adenocarcinoma, triple negative breast cancer) and SW480 (colorectal adenocarcinoma, stem-like subtype) cells were purchased from ATCC and cultured as per manufacturer's instruction. Thymidine (Sigma, T9250) stock solution (100 mM) was prepared in PBS. 2′-Deoxycytidine (Sigma, D897) stock solution (240 mM) was prepared in distilled H2O. Nocodazole (Selleck Chemicals, S2775) stock solution (5 mg/mL) was made in dimethyl sulfoxide (DMSO). FxCycle Far Red stain (F10348) for cell cycle analysis was purchased from Thermo Fisher Scientific.
Antibodies. […]
Cell Cycle Synchronization. […] Effectiveness of NEK2 inhibitors (Cmpd-16 and Cmpd-18) were assessed by adding small molecule inhibitors with nocodozole at 10, 50, 100, and 500 nM concentration at the time of nocodazole addition. […]
Immunoblot Analysis. […] Whole cell lysates were sonicated and centrifuged at 16000×g for 10 minutes at 4° C., and protein concentration of the supernatant were determined using BCA Protein assay kit (ThermoScientific, 23225). Equal amounts of protein lysates (30 μg/lane and 10 μg/lane only for Histone H3 immunoblots) were fractionated on a NuPAGE Novex 4%-12% Bis-Tris Protein Gel (Thermo Fisher Scientific, NP0335BOX) and transferred onto a low fluorescence PVDF membrane (Millipore, IPFL07810). […] Li-Cor Image Studio software was used for western blot analysis and quantification

- pIC50 [1]: ≥ 8.30
Structure (SMILES): N#Cc1c(Nc2nc(Nc3ccc(N4CCNCC4)cc3)ncc2Cl)cccc1OCc1ccccc1F [Compound 16, 2-((5-chloro-2-((4-(piperazin-1-yl)phenyl)amino)pyrimidin-4-yl)amino)-6-((2-fluorobenzyl)oxy)benzonitrile]
- phosphorylation of PP1α and HEC1 (HistoneH3 phosphorylation as marker of mitosis) [2]: more specifically inhibited phosphorylation of PP1α and HEC1 without interfering in cell cycle progression than Cmpd-18
